Measurements from patent US20110288151A1, “METHODS OF CHARACTERIZING BREAST CANCER AND IDENTIFYING TREATMENTS FOR SAME” (The Trustees of the University of Pennsylvania, priority 2008, published 2011).

Experiments:
Rac [1] = assay: Rac activation by HRG or EGF in breast cancer cell lines (GST-Raf-PBD pull-down); format: cell-based; details: various breast cancer cell lines, HRG 10 ng/mL or EGF 100 ng/mL, 0-5 minutes, n=3
T-47D cells = assay: Membrane ruffles in T-47D cells; format: cell-based, human; details: T-47D cells treated with HRG or EGF
Description: HRG is known to cause morphological changes, including the formation of lamellipodia and membrane ruffles.
FIG. 14E is a bar graph depicting reduced colony formation, in response to treatment with HRG (10 ng/mL), in the P-Rex1 depleted cell lines of FIG. 14A as compared to control cells.

P-Rex1 = P-Rex1 sub-cellular localization in MCF-7 cells (fluorescence microscopy); format: cell-based, human; details: HRG 10 ng/mL 10 min, Wortmannin 1 μM, antibodies 10 μg/mL 1 hr
Description: Cells were then fixed and stained with the antibody of Example 1 to detect P-Rex1 and subject to staining with a secondary Cy2-conjugated antibody, and visualized with fluorescence microscopy. […] (FIG. 12A and FIG. 12B).
To test whether this effect of HRG on P-Rex1 localization was dependent on PI3K, MCF-7 breast cancer cells were serum starved for 48 hours, treated for 10 minutes with HRG (10 ng/mL), with or without Wortmannin (1 μM), an anti-ErbB3 blocking antibody (10 μg/mL, 1 hr) or control IgG and stained and visualized (FIG. 12B).

Rac1 = assay: Rac1-GTP GST pull down, HRG-treated MCF-10A cells; format: cell-based, human; details: serum-starved MCF-10A cells, HRG 100 ng/ml 5 min, pretreatment (1 h; PTX 24 h)
Description: The image of the immunoblot depicts Rac1-GTP levels as determined by a GST pull down assay of serum-starved MCF-10A cells treated with HRG (100 ng/ml, 5 min), with or without pretreatment with PI3K inhibitor wortmannin, EGFR inhibitor AG1478, PI3Kγ inhibitor 5-quinoxalin-6-ylmethylene-thiazolidine-2,4-dione (1 mM, 1 h), or PTX (24 h) (FIG. 17).

Rac [2] = assay: Rac-GTP pull-down, HRG-treated MCF-7 cells; format: cell-based, human; details: HRG 100 ng/ml, 5 min, pharmacological inhibitor
Description: FIG. […] Rac-GTP levels were determined by a Rac-GTP pull-down assay of lysates of the treated cells. […]
As described above, Gβγ subunits are known to activate PI3Kγ. As Rac activation by HRG is affected by PTX as shown in Example 10, the involvement of PI3Kγ in the response was investigated.
To further investigate the role of PI3Kγ, PI3Kγ depleted MCF-7 cell lines were generated using PI3Kγ (#1 and #2) and non-target sequence (NTS) control shRNA lentiviruses (Sigma) (FIG. 16B).
To determine whether CXCR4 is involved in HRG responses, CXCR4 expression was knocked down using RNAi in MCF-7 cells. […] Such a mechanism has important implications in tumorigenesis and metastatic dissemination.

EGF: epidermal growth factor (NSDSECPLSHDGYCLHDGVCMYIEALDKYACNCVVGYIGERCQYRDLKWWELR; UniProt P01133 971-1023, looked up)
Rac activation (Rac [1]): activate Rac
ruffle formation on ligand treatment (T-47D cells): characteristic ruffles were observed

CC(C)(C)n1nc(-c2ccc(Cl)cc2)c2c(N)ncnc21 [PP2]
effect on HRG-induced P-Rex1 localization (P-Rex1): did not have such an effect

COc1cc2ncnc(Nc3cccc(Cl)c3)c2cc1OC [AG1478]
sensitivity of Rac1 activation by HRG (Rac1): blocked Rac activation

O=C1NC(=O)C(=Cc2ccc3nccnc3c2)S1 [5-quinoxalin-6-ylmethylene-thiazolidine-2,4-dione]
sensitivity of Rac1 activation by HRG (Rac1): insensitive
Rac activation by HRG (Rac [2]): dose-dependently reduced Rac activation by HRG
